Patent publication US10160755B2 (Plexxikon Inc., priority 2015, dated 2018)
Where a chain is given by its changes, count along the chain named.

Legend:
[1] = target: T1, BA/F3-FLT3-ITD + F691L cells (Homo sapiens, UniProt P36888, F691L, cells depend on it, form not given); test: BA/F3-FLT3-ITD + F691L cell proliferation assay (CellTiter-Glo); type: cell-based, murine; details: BaF3 FLT3 ITD/F691L cells; read-out: Cell Activity (IC50 μM) BaF3_FLT3_ITD/F691L
T1 sequence (P36888 1-993 F691L): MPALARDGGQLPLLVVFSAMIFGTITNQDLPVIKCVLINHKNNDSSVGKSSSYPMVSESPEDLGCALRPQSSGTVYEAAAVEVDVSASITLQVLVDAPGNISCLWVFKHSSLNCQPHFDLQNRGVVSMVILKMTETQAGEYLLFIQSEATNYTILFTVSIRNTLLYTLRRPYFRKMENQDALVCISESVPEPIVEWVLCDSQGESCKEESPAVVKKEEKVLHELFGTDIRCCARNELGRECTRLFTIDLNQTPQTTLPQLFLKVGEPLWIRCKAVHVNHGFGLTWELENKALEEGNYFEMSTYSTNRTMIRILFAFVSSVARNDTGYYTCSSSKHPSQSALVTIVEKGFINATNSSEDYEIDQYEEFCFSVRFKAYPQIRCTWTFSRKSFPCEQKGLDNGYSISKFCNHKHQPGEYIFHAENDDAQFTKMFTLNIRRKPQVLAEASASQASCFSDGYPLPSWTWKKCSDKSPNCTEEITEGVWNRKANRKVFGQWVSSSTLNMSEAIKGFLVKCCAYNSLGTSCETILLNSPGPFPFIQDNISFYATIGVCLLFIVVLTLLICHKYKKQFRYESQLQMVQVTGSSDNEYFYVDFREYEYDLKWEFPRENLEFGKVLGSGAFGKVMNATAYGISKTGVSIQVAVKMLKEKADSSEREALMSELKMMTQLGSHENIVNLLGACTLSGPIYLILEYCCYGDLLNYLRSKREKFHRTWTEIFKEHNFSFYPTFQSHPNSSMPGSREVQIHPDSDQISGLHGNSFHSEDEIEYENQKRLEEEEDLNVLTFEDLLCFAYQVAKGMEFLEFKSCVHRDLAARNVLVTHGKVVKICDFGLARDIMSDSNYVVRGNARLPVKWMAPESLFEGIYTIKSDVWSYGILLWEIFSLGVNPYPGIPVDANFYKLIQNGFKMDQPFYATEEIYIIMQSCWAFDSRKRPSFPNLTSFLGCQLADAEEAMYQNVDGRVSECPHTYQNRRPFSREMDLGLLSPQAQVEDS
Text: The FLT3 inhibitors may also be assessed using leukemia cell lines that express endogenous FLT3-ITD or cells that are engineered to express wild-type or mutant FLT3. The cells expressing endogenous FLT3 are dependent upon FLT3 catalytic activity for growth. For the engineered cells, murine BA/F3 cells were transfected with full-length FLT3 (either wild-type, or containing the ITD, D835Y, or F691L mutations, as noted). The parental BA/F3 cells are dependent upon Interleukin-3 (IL-3) for survival, and introduction of the FLT3 constructs renders these cells dependent upon FLT3 kinase activity when cultured in the absence of IL-3. Engineered BA/F3 cell growth assays can be performed in either the absence or presence of IL-3, to assess the compound inhibition of FLT3 or to detect the presence of off-target activity, respectively. Inhibitors of FLT3 kinase activity reduce or eliminate the FLT3 oncogenic signaling, resulting in reduced cell proliferation. This inhibition is measured as a function of compound concentration to assess IC50 values.
Cells were seeded at 1×10^4 cells per well of a 96 well cell culture plate in 50 μl of cell culture medium. Compounds were dissolved in DMSO, typically at a concentration of 5 mM and were serially diluted 1:3 for a total of eight points and added to the cells to final concentrations of 10, 3.3, 1.1, 0.37, 0.12, 0.041, 0.014 and 0.0046 μM in 100 μl cell culture medium (final concentration 0.2% DMSO). […] The cells were incubated at 37° C., 5% CO2 for three days. CellTiter-Glo Buffer (Promega Cell Viability Assay catalog #G7573) and substrate were equilibrated to room temperature, and enzyme/substrate Recombinant Firefly Luciferase/Beetle Luciferin was reconstituted. The cell plates were equilibrated to room temperature for 30 minutes, then lysed by addition of an equivalent volume of the Celltiter-Glo Reagent. The plate was mixed for 10 minutes on a plate shaker to lyse the cells. The plates were read on a Tecan M1000 using Luminescence protocol modified to read 0.1 s per well. The luminescence reading assesses the ATP content, which correlates directly with cell number such that the reading as a function of compound concentration was used to determine the IC50 value.

FLT3-D835Y = target: T2, FLT3-D835Y (Homo sapiens, UniProt P36888, D835Y); test: FLT3-D835Y biochemical kinase assay (AlphaScreen)
T2 construct: purchased Invitrogen PV3967
T2 sequence (P36888 27-993 D835Y): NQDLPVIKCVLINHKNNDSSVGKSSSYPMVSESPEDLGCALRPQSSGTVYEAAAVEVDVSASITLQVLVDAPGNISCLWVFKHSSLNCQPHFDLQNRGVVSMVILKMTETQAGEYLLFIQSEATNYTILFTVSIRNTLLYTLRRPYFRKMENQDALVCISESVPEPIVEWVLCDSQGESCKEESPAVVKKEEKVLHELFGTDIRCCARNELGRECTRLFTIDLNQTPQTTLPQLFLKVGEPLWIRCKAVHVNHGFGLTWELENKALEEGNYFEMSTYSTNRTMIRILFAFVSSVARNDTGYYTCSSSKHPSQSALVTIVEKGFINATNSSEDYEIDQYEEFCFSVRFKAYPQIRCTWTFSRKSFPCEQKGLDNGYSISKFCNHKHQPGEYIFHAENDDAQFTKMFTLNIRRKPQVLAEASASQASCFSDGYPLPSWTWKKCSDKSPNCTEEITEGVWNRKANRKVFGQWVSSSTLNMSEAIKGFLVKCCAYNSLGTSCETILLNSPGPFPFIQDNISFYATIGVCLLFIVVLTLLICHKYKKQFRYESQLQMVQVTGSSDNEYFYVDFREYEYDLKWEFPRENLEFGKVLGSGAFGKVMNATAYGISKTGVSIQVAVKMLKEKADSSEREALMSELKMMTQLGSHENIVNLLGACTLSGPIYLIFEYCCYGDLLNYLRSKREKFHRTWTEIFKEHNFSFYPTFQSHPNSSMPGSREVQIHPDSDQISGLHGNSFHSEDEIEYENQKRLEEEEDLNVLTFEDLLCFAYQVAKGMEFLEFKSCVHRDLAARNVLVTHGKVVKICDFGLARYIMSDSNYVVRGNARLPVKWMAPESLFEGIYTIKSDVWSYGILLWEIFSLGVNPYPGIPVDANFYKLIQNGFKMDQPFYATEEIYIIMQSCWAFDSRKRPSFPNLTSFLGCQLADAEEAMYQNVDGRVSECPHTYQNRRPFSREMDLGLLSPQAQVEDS
Outline: (§1)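 Recombinant kinase, biotin-GG(EEEEY)10EE 30 nM final, ATP 10 μM (D835Y) / 100 μM (ITD). Stop/detect: SA donor beads 20 min RT, then PY20 acceptor beads 60 min RT. AlphaScreen 580 nm signal; IC50.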

FLT3-ITD = target: T3, FLT3-ITD (Homo sapiens, UniProt P36888); test: FLT3-ITD biochemical kinase assay (AlphaScreen)
T3 construct: FLT3-ITD; Invitrogen #PV6190
T3 sequence (P36888 1-993): T1 sequence (P36888 1-993 F691L) with L691F
Outline: as §1

GI50 [1] [µM] | IC50 (FLT3-D835Y) [µM] | IC50 (FLT3-ITD) [µM] | SMILES
0.0001 to 1 | 0.0001 to 1 |  | CC(C)(C)n1cnc2ccc(-c3c[nH]c4ncc(-c5ccc(N6CCOCC6)cc5)cc34)cc21 [P-299, 4-[4-[3-(3-tert-butylbenzimidazol-5-yl)-1H-pyrrolo[2,3-b]pyridin-5-yl]phenyl]morpholine]
0.0001 to 1 | 0.0001 to 1 |  | CC(C)(C)n1cnc2ccc(-c3c[nH]c4ncc(-c5ccnc(N6CCNCC6)c5)nc34)cc21 [P-307, 7-(3-tert-butylbenzimidazol-5-yl)-2-(2-piperazin-1-yl-4-pyridyl)-5H-pyrrolo[2,3-b]pyrazine]
0.0001 to 1 | 0.0001 to 1 |  | Cn1cnc2ccc(-c3c[nH]c4ncc(C(=O)Nc5cccc(F)c5)cc34)cc21 [P-177, N-(3-fluorophenyl)-3-(3-methylbenzimidazol-5-yl)-1H-pyrrolo[2,3-b]pyridine-5-carboxamide]
0.0001 to 1 | 0.0001 to 1 |  | CC(C)(C)n1cnc2ccc(-c3c[nH]c4ncc(-c5cccc(N6CCNCC6)c5)nc34)cc21 [P-302, 7-(3-tert-butylbenzimidazol-5-yl)-2-(3-piperazin-1-ylphenyl)-5H-pyrrolo[2,3-b]pyrazine]
0.0001 to 1 | 0.0001 to 1 |  | c1cc(N2CCOCC2)ccc1-c1cnc2[nH]cc(-c3ccc4ncn(C5CCCNC5)c4c3)c2c1 (centres unmarked) [P-300, 4-[4-[3-[3-(3-piperidyl)benzimidazol-5-yl]-1H-pyrrolo[2,3-b]pyridin-5-yl]phenyl]morpholine]
0.0001 to 1 | 0.0001 to 1 |  | c1cc(-c2cnc3[nH]cc(-c4ccc5ncn(C6CCCNC6)c5c4)c3n2)cc(N2CCOCC2)c1 (centres unmarked) [P-303, 4-[3-[7-[3-(3-piperidyl)benzimidazol-5-yl]-5H-pyrrolo[2,3-b]pyrazin-2-yl]phenyl]morpholine]
0.0001 to 1 | 0.0001 to 1 |  | N#Cc1cc(-c2cnc3[nH]cc(-c4ccc5ncn(C6CCCNC6)c5c4)c3n2)ccn1 (centres unmarked) [P-304, 4-[7-[3-(3-piperidyl)benzimidazol-5-yl]-5H-pyrrolo[2,3-b]pyrazin-2-yl]pyridine-2-carbonitrile]
0.0001 to 1 | 0.0001 to 1 |  | COc1cnc2[nH]cc(-c3ccc4ncn(-c5ccc(F)c(Cl)c5)c4c3)c2c1 [P-109, 1-(3-chloro-4-fluoro-phenyl)-6-(5-methoxy-1H-pyrrolo[2,3-b]pyridin-3-yl)benzimidazole]
0.0001 to 1 | 0.0001 to 1 |  | c1cc(-c2cnc3[nH]cc(-c4ccc5ncn(C6CCCNC6)c5c4)c3n2)cc(N2CCNCC2)n1 (centres unmarked) [P-308, 2-(2-piperazin-1-yl-4-pyridyl)-7-[3-(3-piperidyl)benzimidazol-5-yl]-5H-pyrrolo[2,3-b]pyrazine]
 | 0.0001 to 1 | 0.0001 to 1 | COc1cc(-c2cnc3[nH]cc(-c4ccc5ncn(C6CCCNC6)c5c4)c3c2)ccn1 (centres unmarked) [P-138, 5-(2-methoxy-4-pyridyl)-3-[3-(3-piperidyl)benzimidazol-5-yl]-1H-pyrrolo[2,3-b]pyridine]
 | 0.0001 to 1 | 0.0001 to 1 | COc1cnc2[nH]cc(-c3ccc4c(c3)N(C)CCO4)c2c1 [P-107, 6-(5-methoxy-1H-pyrrolo[2,3-b]pyridin-3-yl)-4-methyl-2,3-dihydro-1,4-benzoxazine]
 | 0.0001 to 1 | 0.0001 to 1 | Cn1cnc2ccc(-c3c[nH]c4ncc(-c5ccc(C#N)s5)cc34)cc21 [P-179, 5-[3-(3-methylbenzimidazol-5-yl)-1H-pyrrolo[2,3-b]pyridin-5-yl]thiophene-2-carbonitrile]
 | 0.0001 to 1 | 0.0001 to 1 | COc1cc(-c2cnc3[nH]cc(-c4ccc5ncn(CC(F)(F)F)c5c4)c3c2)ccn1 [P-108, 5-(2-methoxy-4-pyridyl)-3-[3-(2,2,2-trifluoroethyl)benzimidazol-5-yl]-1H-pyrrolo[2,3-b]pyridine]
